For experiment [1], the target named is hCA I (Homo sapiens, UniProt P00915). In words: stopped flow CO2 hydrase assay, hCA I.
Experimental: (§1) The tested CA panel was comprised of the two ubiquitously expressed cytosolic hCA I and II isoforms, along with the two tumor-related transmembrane hCA IX and XII isoforms. The activity of the synthesized hybrids was reported as Ki (inhibition constant) to assess their binding affinity. […] The inhibitor and enzyme solutions were first preincubated together for 15 min at room temperature to enable for the generation of the E–I complex. Photophysics stopped-flow instrument was used to measure the CA-catalyzed CO2 hydration activity. Phenol red (at a concentration of 0.2 mM) was added as an indicator after a period of 10–100 s in the CA-catalyzed CO2 hydration reaction at an absorbance maximum of 557 nm, with 20 mM Hepes (pH = 7.4) and 10 mM NaClO4 (to maintain constant ionic strength) [30]. […] In the initial 5–10% of the reaction, at least six traces were examined to determine the initial velocity for each inhibitor. Similarly, the total measured rates were used to measure the uncatalyzed rates [32]. Distilled–deionized water was used in the preparation of the Stock inhibitor solutions (10 mM), as well as dilutions up to 0.01 nM. The inhibition constants were measured utilizing PRISM 3, whereas the Lineweaver–Burk plots were used to measure the kinetic parameters which comprised the mean of at least three separate measurements [33, 34].
The target of experiment [2] is hCA II (Homo sapiens, UniProt P00918). As to the kind of experiment: stopped flow CO2 hydrase assay, hCA II.
Experimental: as §1
Experiment [3] deals with hCA IX (Homo sapiens, UniProt Q16790). In words: stopped flow CO2 hydrase assay, hCA IX.
Experimental: as §1
For experiment [4], the target named is hCA XII (Homo sapiens, UniProt O43570). In words: stopped flow CO2 hydrase assay, hCA XII.
Chain of hCA XII (O43570 25-354): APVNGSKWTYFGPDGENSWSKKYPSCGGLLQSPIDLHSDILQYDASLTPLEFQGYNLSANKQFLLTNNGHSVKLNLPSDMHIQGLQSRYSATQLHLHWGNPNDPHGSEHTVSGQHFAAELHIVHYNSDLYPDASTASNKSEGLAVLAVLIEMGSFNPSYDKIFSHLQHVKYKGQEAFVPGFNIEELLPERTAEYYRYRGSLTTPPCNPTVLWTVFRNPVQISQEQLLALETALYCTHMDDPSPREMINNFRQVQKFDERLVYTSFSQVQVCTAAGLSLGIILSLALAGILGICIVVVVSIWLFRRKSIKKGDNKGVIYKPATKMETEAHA
Experimental: as §1

Structures are written as SMILES.

Chain of hCA I (P00915 whole entry): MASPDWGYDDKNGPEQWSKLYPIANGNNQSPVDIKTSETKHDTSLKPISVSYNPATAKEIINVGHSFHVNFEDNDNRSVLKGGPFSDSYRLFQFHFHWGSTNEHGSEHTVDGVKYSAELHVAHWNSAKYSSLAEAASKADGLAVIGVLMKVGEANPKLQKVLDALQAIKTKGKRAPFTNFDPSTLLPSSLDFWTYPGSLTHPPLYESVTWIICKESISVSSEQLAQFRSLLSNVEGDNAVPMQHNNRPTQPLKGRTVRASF

Turning to `NS(=O)(=O)c1cccc(NC(=O)c2ccc3cc[nH]c3c2)c1` [Compound 2j, N-(3-sulfamoylphenyl)-1H-indole-6-carboxamide], the Ki in experiment [1] turned out to be 5400 nM; in experiment [2], 94.8 nM; in experiment [3], 654 nM; in experiment [4], 40.5 nM.
For the compound `NS(=O)(=O)c1ccc(NC(=O)CCc2c[nH]c3ccccc23)cc1` [Compound 2d, 3-(1H-indol-3-yl)-N-(4-sulfamoylphenyl)propanamide], the Ki in experiment [1] was determined as 97.6 nM; in experiment [2], 7.1 nM; in experiment [3] it was 166 nM; in experiment [4] it was 42.2 nM.
For `NS(=O)(=O)c1ccc(NC(=O)c2ccc3[nH]ccc3c2)cc1` [Compound 2f, N-(4-sulfamoylphenyl)-1H-indole-5-carboxamide], the Ki in experiment [1] was found to be 3110 nM; in experiment [2], 16 nM; in experiment [3] it was 165 nM; in experiment [4], 257 nM.
In the same order, the values of `NS(=O)(=O)c1ccc(NC(=O)c2ccc3cc[nH]c3c2)cc1` [Compound 2k, N-(4-sulfamoylphenyl)-1H-indole-6-carboxamide] are 4660 nM, 833 nM, 428 nM and 83.8 nM.
In the same order, the values of `NS(=O)(=O)c1ccc(O)c(NC(=O)c2ccc3[nH]ccc3c2)c1` [Compound 2g, N-(2-hydroxy-5-sulfamoylphenyl)-1H-indole-5-carboxamide] are 4770 nM, 680 nM, 280 nM and 85.3 nM.
`NS(=O)(=O)c1ccc(O)c(NC(=O)CCc2c[nH]c3ccccc23)c1` [Compound 2b, N-(2-hydroxy-5-sulfamoylphenyl)-3-(1H-indol-3-yl)propanamide]: the Ki in experiment [1] was 2800 nM; in experiment [2], 7.3 nM; in experiment [3], 286 nM; in experiment [4] it was 85.1 nM.
Consider `NS(=O)(=O)c1ccc(O)c(NC(=O)c2ccc3cc[nH]c3c2)c1` [Compound 2l, N-(2-hydroxy-5-sulfamoylphenyl)-1H-indole-6-carboxamide], for which the Ki is 4280 nM in experiment [1], 682 nM in experiment [2], 423 nM in experiment [3] and 73.7 nM in experiment [4].
In the same order, the values of `NS(=O)(=O)c1ccc(CCNC(=O)CCc2c[nH]c3ccccc23)cc1` [Compound 2c, 3-(1H-indol-3-yl)-N-(4-sulfamoylphenethyl)propanamide] are 217 nM, 9 nM, 222 nM and 36.9 nM.
In the same order, the values of `NS(=O)(=O)c1ccccc1NC(=O)c1ccc2cc[nH]c2c1` [Compound 2n, N-(2-sulfamoylphenyl)-1H-indole-6-carboxamide] are 7510 nM, 670 nM, 487 nM and 36.9 nM.
In the same order, the values of `NS(=O)(=O)c1ccc(C(=O)Nc2ccc3[nH]ccc3c2)cc1` [Compound 2o, N-(1H-indol-5-yl)-4-sulfamoylbenzamide] are 56.6 nM, 7.5 nM, 170 nM and 66.9 nM.
Regarding `NS(=O)(=O)c1ccccc1NC(=O)c1ccc2[nH]ccc2c1` [Compound 2i, N-(2-sulfamoylphenyl)-1H-indole-5-carboxamide], the Ki in experiment [1] turned out to be 7450 nM; in experiment [2], 71.9 nM; in experiment [3], 635 nM; in experiment [4], 89.4 nM.
Take `NS(=O)(=O)c1cccc(NC(=O)CCc2c[nH]c3ccccc23)c1` [Compound 2a, 3-(1H-indol-3-yl)-N-(3-sulfamoylphenyl)propanamide]: the Ki in experiment [1] was found to be 79.8 nM; in experiment [2] it was 5.9 nM; in experiment [3] it was 206 nM; in experiment [4], 54.2 nM. The “selectivity for hCA II over hCA I” value in experiment [2] (ratio of Ki values) was found to be 13 fold. Also, the “selectivity for hCA II over hCA IX” value in experiment [2] (ratio of Ki values) was 34 fold. Moreover, the “selectivity for hCA II over hCA XII” value in experiment [2] (ratio of Ki values) was 9 fold.
Take `NS(=O)(=O)c1cccc(NC(=O)c2ccc3[nH]ccc3c2)c1` [Compound 2e, N-(3-sulfamoylphenyl)-1H-indole-5-carboxamide]: the Ki worked out at 5570 nM in experiment [1], 45.5 nM in experiment [2], 766 nM in experiment [3] and 90.9 nM in experiment [4].
For `NS(=O)(=O)c1ccc(CCNC(=O)c2ccc3[nH]ccc3c2)cc1` [Compound 2h, N-(4-sulfamoylphenethyl)-1H-indole-5-carboxamide], in that order: 554 nM, 8.6 nM, 240 nM and 236 nM.
Take `NS(=O)(=O)c1ccc(CCNC(=O)c2ccc3cc[nH]c3c2)cc1` [Compound 2m, N-(4-sulfamoylphenethyl)-1H-indole-6-carboxamide]: the Ki is 253 nM in experiment [1], 38.8 nM in experiment [2], 278 nM in experiment [3] and 85.1 nM in experiment [4].

Usually Ki stands for a dissociation constant, usually derived from enzyme kinetics or from competition with a known ligand. A lower Ki goes with a stronger hold on the target.
